Patent US9856221B2, “Salt of ivabradine and process for the preparation thereof” (LES LABORATOIRES SERVIER, priority 2014, dated 2018)
“And” between values parts separate entries of the source, which are not always exact repeats. Equal entries are not always repeated. Structures can show the parent of a compound that is named as a salt. Each block holds one molecule with its values, some of them ahead of it.

Tests used:
[1] = Dissolution test (paddle apparatus, Ph. Eur. 2.9.3), release of active ingredient; assay type: physicochemical; conditions: for % of active ingredient released (individual units B1-B6) / % of active ingredient released, Mean: 0.01 N HCl pH~2.1, 37°C, paddle 50 rpm; for % of active ingredient released (individual units B1-B6): 500 mL; for % of active ingredient released, Mean: mean of 6 units
Description: Dissolution Test Operating Conditions for Dissolution Paddle dissolution apparatus described in the European pharmacopoeia (2.9.3) Dissolution medium: 0.01 N hydrochloric acid (pH˜2.1) degassed Temperature of the medium: 37° C.±0.5° C. Volume of the medium: 500 mL±5 mL Speed of rotation of the blades: 50 rpm±2 rpm Standard sampling time: 0, 15, 30 and 45 min Added sampling times: 1, 2, 4, 6, 8, 12 and 16 h Volume removed: 1 mL Replacement of the volume removed: no Number of units tested: 6 Number of units per flask: 1

[2] = In vitro release of ivabradine hydrochloride (immediate-release formulation); assay type: physicochemical

ivabradine hemipamoate released ([1]; after approximately 6 hours, in vitro dissolution test): 80%
Derivative (of % of active ingredient released over time) ([1]; time 0 hour): 0 %/min
% of active ingredient released (individual units B1-B6) ([1]; time 0 hour): 0%
% of active ingredient released, Mean ([1]; time 0 hour): 0%
Derivative (of % of active ingredient released over time) ([1]; time 0.25 hour): 0.79 %/min
% of active ingredient released (individual units B1-B6) ([1]; time 0.25 hour): 12% (3×) and 11% (2×) and 13%
% of active ingredient released, Mean ([1]; time 0.25 hour): 12%
Derivative (of % of active ingredient released over time) ([1]; time 0.5 hour): 0.4 %/min
% of active ingredient released (individual units B1-B6) ([1]; time 0.5 hour): 18% (2×) and 17% (2×) and 20% and 16%
% of active ingredient released, Mean ([1]; time 0.5 hour): 18%
Derivative (of % of active ingredient released over time) ([1]; time 0.75 hour): 0.26 %/min
% of active ingredient released (individual units B1-B6) ([1]; time 0.75 hour): 21% (2×) and 22% (2×) and 24% and 20%
% of active ingredient released, Mean ([1]; time 0.75 hour): 22%
Derivative (of % of active ingredient released over time) ([1]; time 1 hour): 0.2 %/min
% of active ingredient released (individual units B1-B6) ([1]; time 1 hour): 24% and 25% and 26% and 28% and 23% (2×)
% of active ingredient released, Mean ([1]; time 1 hour): 25%
Derivative (of % of active ingredient released over time) ([1]; time 2 hour): 0.23 %/min
% of active ingredient released (individual units B1-B6) ([1]; time 2 hour): 38% (2×) and 40% (2×) and 43% and 34%
% of active ingredient released, Mean ([1]; time 2 hour): 39%
Derivative (of % of active ingredient released over time) ([1]; time 4 hour): 0.25 %/min
% of active ingredient released (individual units B1-B6) ([1]; time 4 hour): 64% and 70% (2×) and 71% and 72% and 66%
% of active ingredient released, Mean ([1]; time 4 hour): 69%
Derivative (of % of active ingredient released over time) ([1]; time 6 hour): 0.15 %/min
% of active ingredient released, Mean ([1]; time 6 hour): 86%
Derivative (of % of active ingredient released over time) ([1]; time 8 hour): 0.07 %/min
% of active ingredient released, Mean ([1]; time 8 hour): 95%
Derivative (of % of active ingredient released over time) ([1]; time 12 hour): 0.03 %/min
% of active ingredient released, Mean ([1]; time 12 hour): 104%
Derivative (of % of active ingredient released over time) ([1]; time 16 hour): 0.01 %/min
% of active ingredient released, Mean ([1]; time 16 hour): 107%
Structure (SMILES): COc1cc2c(cc1OC)CC(=O)N(CCCN(C)C[C@H]1Cc3cc(OC)c(OC)cc31)CC2 [ivabradine hemipamoate]
% of active ingredient released (individual units B1-B6) ([1]; time 6 hour): 81% and 89% and 88% and 85% and 91% and 84%
% of active ingredient released (individual units B1-B6) ([1]; time 8 hour): 89% and 99% and 96% and 94% and 101% and 93%
% of active ingredient released (individual units B1-B6) ([1]; time 12 hour): 96% and 109% and 102% and 103% and 110% and 101%
% of active ingredient released (individual units B1-B6) ([1]; time 16 hour): 98% and 114% (2×) and 104% and 106% and 105%

time in which all the salt is released in vitro [2]: 15 min
Structure (SMILES): COc1cc2c(cc1OC)CC(=O)N(CCCN(C)C[C@H]1Cc3cc(OC)c(OC)cc31)CC2 [ivabradine hydrochloride, 3-{3-[{[(7S)-3,4-dimethoxybicyclo[4.2.0]octa-1,3,5-trien-7-yl]methyl}-(methyl)amino]propyl}-7,8-dimethoxy-1,3,4,5-tetrahydro-2H-3-benzazepin-2-one]
